Test [1] has as its system human osteoblast. The test can be described thus: Lucifer Yellow microinjection dye transfer, human osteoblasts. It counts as cell-based. To be noted: 10 minutes, after 48 hours hypoxia 3-6% O2 (7 cells before). As to the method: (§1) Human osteblast cells (hOB): Cells were isolated from human bone marrow obtained by puncture of the posterior iliac spine of healthy volunteers (aged 20-36): 10-15 ml marrow material was collected in 15 ml PBS+Ca,Mg (Life Technologies, Cat.No. 14040) with 100 U/ml Heparin (Sigma, Cat.No. H-3149). The mononuclear fraction of the marrow was isolated on a Lymphoprep gradient (Nycomed Pharma, Cat.No. 1001967), by centrifugation at 2200 rpm for 30 min. After harvesting, the mononuclear fraction was washed once with culture medium and centrifuged at 1800 rpm for 10 min. Subsequently cells were counted and plated in culture medium at 8x10^6 cells/100 mm dish. hOB medium (all reagents obtained from Life Technologies): MEM w/o Phenol Red w/ Glutamax (Cat.No. 041-93013) supplemented with 10% heat inactivated fetal calf serum (Cat.No. 10106) and 0.1% Penicillin/Streptomycin (Cat.No. 15140). Medium was changed the following day and the cells were cultured at 37°C in 5%CO2 with medium change every 7 days. After 3-4 weeks of culture the cells had reached 70% confluence. The medium was then supplemented with 100 nM Dexamethasone (Sigma, Cat.No. D-4902) for 7 days. Cells were then plated for video imaging experiments: a 25 mm #1 glass coverslip was
placed in a 35 mm dish (or each well of a 6-well multidish), cells were plated at 2.5×10^5 cells/coverslip and cultured for 2-3 days before use. […]

In test [2] the target is murine heart tissue preparations. The test can be described thus: Displacement of [125I]AAP10 from murine heart tissue preparations. The test is classed as binding, mice. On the procedure:
Hearts are excised from mice (Balb/cJ, 20 g), rinsed twice in ice-cold (0°C) 0.32 M sucrose and homogenized on ice in 10 volumes of sucrose with an Ultra Turrax homogeniser (1000 rpm) for 2 minutes. The homogenate is centrifuged at 1000 gmea" for 10 minutes at 4° C and the supernatant collected and filtrated through 4 layers of gauze. The filtrate is then centrifuged at 50,000 gmean for 45 min at 4° C and the pellet resuspended in 10 volorg. wet weight ice-cold distilled water and incubated for 60 min at 0° C and re-centrifuged at 50,000 gmean at 45 min at 4° C. The resulting pellet is resuspended in 2 vol org. wet weight of PBS (Phosphate Buffered Saline) and stored at - 80° C until use.
(In a radioligand displacement assay an active substance lowers the binding of a labelled ligand.)

The test system of test [3] is CHO cells. The test can be described thus: In situ binding of [125I]AAP10 on intact CHO cells. To be noted: overnight at 4° C. On the procedure:
CHO cells are seeded in 24-multi well dishes in a density of 7,900 cells/cm^2 (∼ 15,000 cells/well) and grown for 3 Days In Vitro (DIV) in 1 ml/well of F-12K Nutrient Mixture supplemented with 10% Foetal Calf Serum (FCS) and 1000 units penicillin/1000 µg streptomycin (pen/strep) in an atmosphere of 5% CO2 and 100% humidity at 37° C. The cell density has at that time increased to 295,000 cells/cm^2 (152 pgprot/cell ∼ 85 µgprot/well).
On the day of analysis cells are removed from the incubator and each well is washed twice with, depending on the experiment, either 2 ml pre-warmed (37 °C) or ice-cold (0 °C) D-PBS to remove serum. It is important to keep the period to a minimum during which cells are left without physiological solutions to avoid that they dry out during washing procedures. The cold washed cells are used directly for binding assays while the warm washed cells are used for experiments with glucose and oxygen deprivation.
The in situ binding is performed by a modified protocol based on the description by Koenig. […] Cells incubate overnight at 4° C to reach equilibrium. Each well, one at the time, is then rinsed rapidly with 2 x 1 ml D-PBS and left to dry.
0.25 ml of 0.5 % Triton-X-100 (v/v) is added to each well and cells left for at least 1 h to solubilize. The extract is transferred to counting vials, the wells rinsed with 0.25 ml water and the rinse extract added to the corresponding vials. The vials are counted in a γ-counter. Table 3. In situ binding, IC50 (nM).

The subject of test [4] is isolated perfused rabbit hearts. The test can be described thus: Isolated perfused rabbit heart (Langendorff), APD90 dispersion during hypokalemic ischemia. To be noted: 10^-10 mol/l.
For test [5], the system named is human osteoblastic cells. The test can be described thus: DDT-induced uncoupling, Lucifer Yellow dye transfer in human osteoblastic cells. The test is classed as cell-based. As to conditions: 10^-8 mol/l, 10 minutes, after DDT 13 µM for 60 minutes. As to the method:
as §1, with “Human osteoblast cells: Cells were” for “Human osteblast cells (hOB): Cells were”, “15 ml PBS + Ca, Mg (Life Technologies,” for “15 ml PBS+Ca,Mg (Life Technologies,”, “coverslip was placed in a 35 mm dish (or each well of a 6-well multidish), cells were plated at 2.5x10^5 cells/coverslip and cultured for 2-3 days before use. […]” for “coverslip was”

Read-outs that look alike come from different tables or passages of the source.

What is called IC50 is the concentration at which inhibition is half-maximal.

Regarding “Ac-D-Tyr-D-Pro-D-4Hyp-Gly-D-Ala-Gly-NH2 [Compound 2]”, the “dye transfer (number of cells containing Lucifer Yellow)” value in test [1] is 9 cells. For the same substance, the IC50 in test [2] (displacement of 0.8 nM [125I]AAP10, filtrate, read-out: Filtrate IC50) is 3.6 nM; in test [2] (displacement of 0.8 nM [125I]AAP10, membranes, read-out: Membranes IC50), 1.2 nM; in test [3], 0.5 nM. Also, in test [4], the “increase in APD90 dispersion during hypokalemic, acute myocardial ischemia” value is listed as “prevented”. Moreover, in test [5], the “cell-to-cell dye transfer, median” value was 8.3 cells.

The record behind these values is patent EP1370276B1, “INTERCELLULAR COMMUNICATION FACILITATING COMPOUNDS AND THEIR MEDICAL USE” (Zealand Pharma A/S, priority 2001, dated 2002).
